{
  "source": "patent US9937227B2",
  "about": "“Humanin, analogs and cancer treatment methods and uses thereof” (LOS ANGELES BIOMEDICAL RESEARCH INSTITUTE AT HARBOR-UCLA …, priority 2014, dated 2018)",
  "tested_on": "male germ cells",
  "conditions": "24 hours",
  "description": "Young adult mice (12-13 weeks) were randomly divided into 4 groups with 4 or 5 mice per group and received an IP injection: control (Con) (saline), HN (40 mg/Kg BW), CP (200 mg/Kg BW), and the combination of CP+HN. These experiments were repeated four times. In the CP+HN group, mice received an injection of HN followed by an injection of CP about 15 minutes later. Twenty-four hours after injections animals were sacrificed using 5% pentobarbital (200 mg/kg BW) IP injection. Blood was collected and one testis was removed, weighed and frozen in liquid nitrogen. The mouse was next perfused with saline and then subsequently perfuse-fixed with Bouin's solution as previously described and apoptosis was assessed by TUNEL assay (Lue, et al., 2009).\nFor detection of apoptosis in testicular sections, the paraffin embedded testis tissue was cut into 5 micron sections and stained with the TdT-mediated dUTP nick-end labeling assay (TUNEL Apoptosis Detection Kit, Millipore, Billerica, Mass.) to detect apoptosis of germ cells in the testis (Lue, et al., 2009). Testicular sections assayed by TUNEL were examined under a light microscope and the apoptotic germ cells were blindly and manually counted. The seminiferous tubules in the testis section under the microscope were grouped as stages IX-IV (early-late stages of spermatogenesis) and V-VIII (middle stages of spermatogenesis). Germ cell apoptosis was quantified as the number of seminiferous tubules containing apoptotic spermatogonia, spermatoctyes, round spermatids and spermatozoa per 100 seminiferous tubules (Drumond, et al., 2011).",
  "note": "Where two headings read alike, the source gives them in different places.",
  "data": [
    {"smiles": "O=P1(N(CCCl)CCCl)NCCCO1", "note": "(stereo not drawn) [CP, cyclophosphamide monohydrate]", "values": [
      {"measurement": "germ cell apoptosis compared to control", "setting": "early-late stages of spermatogenesis, CP 200 mg/Kg IP", "value": "significantly increased germ cell apoptosis"},
      {"measurement": "germ cell apoptosis compared to control", "setting": "middle stages (V-VIII), CP 200 mg/Kg IP", "value": "significant increase in apoptosis"},
      {"measurement": "germ cell apoptosis compared to control", "setting": "testicular cross sections, HN 40 mg/Kg or CP 200 mg/Kg single IP", "value": "significantly increased germ cell apoptosis"}
    ]}
  ]
}
